Data from ChEMBL document CHEMBL1201862, “PubChem BioAssay data set” (2004).
Calls of active or inactive are those of the source.

Experiments:
[1] = target: T1, Replicative DNA helicase DnaB (Mycobacterium tuberculosis, UniProt P9WMR3); assay: DnaB intein splicing inhibitors, dose response, biochemical, cell-free fluorescence (AID 449749); assay type: functional
T1 sequence (P9WMR3 whole entry): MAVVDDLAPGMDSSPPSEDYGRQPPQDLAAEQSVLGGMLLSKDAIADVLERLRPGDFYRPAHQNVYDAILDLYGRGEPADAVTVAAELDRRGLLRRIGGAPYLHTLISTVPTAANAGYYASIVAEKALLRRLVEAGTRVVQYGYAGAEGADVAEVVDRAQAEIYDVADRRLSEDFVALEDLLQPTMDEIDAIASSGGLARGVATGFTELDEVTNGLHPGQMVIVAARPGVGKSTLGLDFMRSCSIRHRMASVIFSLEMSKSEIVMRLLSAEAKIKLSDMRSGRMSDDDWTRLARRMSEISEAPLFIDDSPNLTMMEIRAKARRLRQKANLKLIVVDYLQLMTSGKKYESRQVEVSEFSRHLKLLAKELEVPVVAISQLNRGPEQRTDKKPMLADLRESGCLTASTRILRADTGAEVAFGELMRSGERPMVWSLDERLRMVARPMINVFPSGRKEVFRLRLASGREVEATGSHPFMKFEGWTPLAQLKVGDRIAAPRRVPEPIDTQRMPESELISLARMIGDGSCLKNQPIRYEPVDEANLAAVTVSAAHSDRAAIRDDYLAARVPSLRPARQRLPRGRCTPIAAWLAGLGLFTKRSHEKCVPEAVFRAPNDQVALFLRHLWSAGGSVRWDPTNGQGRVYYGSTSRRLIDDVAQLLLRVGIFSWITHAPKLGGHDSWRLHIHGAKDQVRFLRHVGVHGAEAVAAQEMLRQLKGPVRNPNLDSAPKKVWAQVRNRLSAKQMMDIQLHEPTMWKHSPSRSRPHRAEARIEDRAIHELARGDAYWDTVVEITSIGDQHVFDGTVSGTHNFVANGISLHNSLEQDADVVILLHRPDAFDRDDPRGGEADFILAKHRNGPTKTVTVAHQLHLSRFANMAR

Protein RecA = target: T2, Protein RecA (Mycobacterium tuberculosis, UniProt P9WHJ3); assay: Fluorescence Cell-Free Homogeneous Dose Retest to Identify Inhibitors of RecA-Intein Splicing Activity. [Related pubchem assays (depositor defined):AID2097, AID2223, AID489010, AID492950]; assay type: functional
T2 sequence (P9WHJ3 whole entry): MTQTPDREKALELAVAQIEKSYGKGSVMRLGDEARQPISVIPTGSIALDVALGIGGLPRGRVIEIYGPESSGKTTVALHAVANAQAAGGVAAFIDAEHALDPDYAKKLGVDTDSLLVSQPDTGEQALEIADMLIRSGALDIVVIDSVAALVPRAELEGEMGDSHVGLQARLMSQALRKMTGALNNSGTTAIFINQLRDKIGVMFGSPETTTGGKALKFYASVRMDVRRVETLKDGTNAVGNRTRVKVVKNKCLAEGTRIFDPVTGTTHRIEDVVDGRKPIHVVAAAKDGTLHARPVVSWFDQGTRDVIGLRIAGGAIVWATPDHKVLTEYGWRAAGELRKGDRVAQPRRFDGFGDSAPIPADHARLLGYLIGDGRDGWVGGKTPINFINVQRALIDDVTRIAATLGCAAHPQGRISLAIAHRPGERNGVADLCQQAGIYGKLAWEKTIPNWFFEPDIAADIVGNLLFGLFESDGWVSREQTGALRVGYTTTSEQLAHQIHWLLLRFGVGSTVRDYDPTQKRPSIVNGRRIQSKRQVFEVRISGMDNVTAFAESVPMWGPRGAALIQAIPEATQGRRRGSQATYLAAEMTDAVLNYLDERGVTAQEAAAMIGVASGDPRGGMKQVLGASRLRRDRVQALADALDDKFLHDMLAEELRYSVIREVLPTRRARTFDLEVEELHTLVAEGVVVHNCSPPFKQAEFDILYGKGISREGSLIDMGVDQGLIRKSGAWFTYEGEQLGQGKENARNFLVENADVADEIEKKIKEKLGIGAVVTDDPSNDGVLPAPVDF

Cytochrome P450 2C19 = Cytochrome P450 2C19 (Homo sapiens, UniProt P33261); assay: Cytochrome panel assay with activity outcomes. Panel member name: p450-cyp2c19 Compounds with AC50 equal or less than 10 uM are considered active; assay type: functional
Chain of Cytochrome P450 2C19 (P33261 whole entry): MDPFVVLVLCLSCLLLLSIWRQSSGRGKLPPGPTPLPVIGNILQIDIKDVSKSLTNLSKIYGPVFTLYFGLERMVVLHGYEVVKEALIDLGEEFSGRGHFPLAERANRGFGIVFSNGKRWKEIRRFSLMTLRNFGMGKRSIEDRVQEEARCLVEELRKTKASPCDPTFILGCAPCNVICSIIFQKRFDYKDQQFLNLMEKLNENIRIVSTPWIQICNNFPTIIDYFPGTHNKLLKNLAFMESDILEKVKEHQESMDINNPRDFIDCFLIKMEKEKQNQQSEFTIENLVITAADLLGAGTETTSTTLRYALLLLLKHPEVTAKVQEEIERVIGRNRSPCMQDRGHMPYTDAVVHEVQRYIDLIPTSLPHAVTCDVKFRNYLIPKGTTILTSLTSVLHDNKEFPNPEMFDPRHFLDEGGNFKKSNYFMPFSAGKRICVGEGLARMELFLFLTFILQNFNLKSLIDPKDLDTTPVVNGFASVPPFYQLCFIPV

Cytochrome P450 2D6 = Cytochrome P450 2D6 (Homo sapiens, UniProt P10635);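 note: CYP2D6 member of a cytochrome P450 panel assay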
Chain of Cytochrome P450 2D6 (P10635 whole entry): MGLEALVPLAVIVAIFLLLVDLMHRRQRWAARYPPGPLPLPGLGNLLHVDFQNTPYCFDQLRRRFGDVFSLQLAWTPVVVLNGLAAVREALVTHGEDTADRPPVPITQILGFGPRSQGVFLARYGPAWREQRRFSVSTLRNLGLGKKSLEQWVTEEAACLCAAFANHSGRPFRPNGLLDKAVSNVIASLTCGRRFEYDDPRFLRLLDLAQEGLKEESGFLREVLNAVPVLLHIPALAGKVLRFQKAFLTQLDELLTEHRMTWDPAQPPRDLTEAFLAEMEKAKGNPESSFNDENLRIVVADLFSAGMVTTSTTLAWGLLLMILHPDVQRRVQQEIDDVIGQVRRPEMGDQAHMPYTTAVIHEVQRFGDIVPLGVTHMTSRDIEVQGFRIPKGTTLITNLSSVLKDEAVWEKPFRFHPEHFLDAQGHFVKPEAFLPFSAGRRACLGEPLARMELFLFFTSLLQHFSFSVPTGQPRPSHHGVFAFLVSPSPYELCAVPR

Cytochrome P450 3A4 = Cytochrome P450 3A4 (Homo sapiens, UniProt P08684);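 note: CYP3A4 tested as one member of a cytochrome P450 panel screen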
Chain of Cytochrome P450 3A4 (P08684 whole entry): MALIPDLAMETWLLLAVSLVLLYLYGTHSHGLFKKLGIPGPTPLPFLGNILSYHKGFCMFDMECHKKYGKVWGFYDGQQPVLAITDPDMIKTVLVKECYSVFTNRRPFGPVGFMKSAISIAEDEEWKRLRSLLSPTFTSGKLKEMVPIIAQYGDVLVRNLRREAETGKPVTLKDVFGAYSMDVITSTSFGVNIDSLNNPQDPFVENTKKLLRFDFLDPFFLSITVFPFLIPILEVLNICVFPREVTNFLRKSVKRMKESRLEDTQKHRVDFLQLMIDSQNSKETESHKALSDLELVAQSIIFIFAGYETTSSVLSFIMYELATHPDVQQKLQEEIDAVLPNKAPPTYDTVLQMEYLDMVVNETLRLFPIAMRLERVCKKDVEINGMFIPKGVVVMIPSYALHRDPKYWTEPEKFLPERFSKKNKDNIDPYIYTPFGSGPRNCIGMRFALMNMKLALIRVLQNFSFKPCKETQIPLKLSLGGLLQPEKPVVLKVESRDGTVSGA

Cytochrome P450 1A2 = target: T3, Cytochrome P450 1A2 (Homo sapiens, UniProt P05177);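 note: PubChem cytochrome P450 panel assay, CYP1A2 panel member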
T3 sequence (P05177 whole entry): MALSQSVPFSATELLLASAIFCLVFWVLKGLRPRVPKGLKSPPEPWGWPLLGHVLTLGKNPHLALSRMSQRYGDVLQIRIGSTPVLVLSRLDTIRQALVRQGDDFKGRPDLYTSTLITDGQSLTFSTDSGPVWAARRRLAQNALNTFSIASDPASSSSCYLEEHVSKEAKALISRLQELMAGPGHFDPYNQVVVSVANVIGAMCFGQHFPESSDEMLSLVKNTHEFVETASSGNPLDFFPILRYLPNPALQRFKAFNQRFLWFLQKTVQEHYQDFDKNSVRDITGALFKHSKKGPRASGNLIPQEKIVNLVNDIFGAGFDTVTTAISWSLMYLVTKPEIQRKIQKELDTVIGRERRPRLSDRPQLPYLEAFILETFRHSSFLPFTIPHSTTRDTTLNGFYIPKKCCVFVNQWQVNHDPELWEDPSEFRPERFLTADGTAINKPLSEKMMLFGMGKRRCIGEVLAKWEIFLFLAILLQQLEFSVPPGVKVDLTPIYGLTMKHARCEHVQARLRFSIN

CCOC(=O)CSCCOc1ccc(C=C2C(=O)NC(=O)NC2=O)cc1OC
AC50 [1]: 46.6 µM (active) | EC50 (Protein RecA): > 380 µM (inactive)

N#CC1(C#N)CC(C=O)=C(N)C1(C#N)CC(=O)C12CC3CC(CC(C3)C1)C2 (stereo unspecified)
AC50 [1]: > 380 µM (inactive) | EC50 (Protein RecA): 10 µM (active)

CN1CCN(c2ncc3nc(CCc4ccccc4)c(=O)n(Cc4cccs4)c3n2)CC1
AC50 (Cytochrome P450 2C19; read-out: AC50): 39.8 µM (inconclusive) | AC50 (Cytochrome P450 2D6): 20 µM (inconclusive) | AC50 (Cytochrome P450 3A4): 12.6 µM (inconclusive)

COC(=O)[C@@]1(Cc2ccccc2)[C@H]2c3cc(C(=O)N4CCCC4)n(Cc4cccc5ccccc45)c3C[C@H]2CN1C(=O)c1ccccc1
AC50 (Cytochrome P450 1A2): 15.8 µM (inconclusive)

c1cncc(CNc2ncn[nH]2)c1
AC50 (Cytochrome P450 2C19): inconclusive

O=C(Nc1ccccc1)N1CCCC2(CCN(S(=O)(=O)c3ccccc3)CC2)C1
AC50 (Cytochrome P450 2D6): 15.8 µM (inconclusive) | AC50 (Cytochrome P450 1A2): 15.8 µM (inconclusive) | AC50 (Cytochrome P450 3A4): 5.01 µM (inconclusive)

CCN(CC)C(=O)C1=C(C)N=C(S)NC1c1cn(-c2ccccc2)nc1-c1ccc(Cl)cc1 (stereo unspecified)
AC50 (Cytochrome P450 2C19; read-out: AC50): 17.8 µM (inconclusive) | AC50 (Cytochrome P450 1A2): 28.2 µM (inconclusive)

N#Cc1c(SCC(N)=O)nsc1SCc1ccccc1Cl
AC50 (Cytochrome P450 1A2): 4.47 µM (inconclusive) | AC50 (Cytochrome P450 3A4): 10 µM (inconclusive)

O=C(Nc1cccc(F)c1)N1CC[C@@]2(CCCN(C(=O)c3ccco3)C2)C1
AC50 (Cytochrome P450 1A2): 25.1 µM (inconclusive) | AC50 (Cytochrome P450 3A4): 10 µM (inconclusive)

CC1(C)[C@@H]2CC[C@]1(C)[C@@H](OC(=O)/C=C\c1ccccc1)C2
AC50 (Cytochrome P450 2C19; read-out: AC50): 0.00398 µM (inconclusive)

C=CC[C@@H](C(=O)O)c1ccccc1
AC50 (Cytochrome P450 2C19): inconclusive

CCOc1ccc(CN(C)C(=O)CCl)cc1
AC50 [1]: > 380 µM (inactive) | EC50 (Protein RecA): 4.09 µM (active)

Cc1ccc(C(=O)NC(C#N)=C(Cl)Cl)cc1
AC50 [1]: 27.1 µM (active) | EC50 (Protein RecA): 19.5 µM (active)

CCC(CC)C(=O)Nc1c2c(nn1-c1ccc(OC)cc1)CS(=O)(=O)C2
AC50 (Cytochrome P450 2C19; read-out: AC50): 35.5 µM (inconclusive) | AC50 (Cytochrome P450 3A4): 25.1 µM (inconclusive)

CCCCNC(=O)CCn1c(=S)[nH]c2cc3c(cc2c1=O)OCO3
AC50 (Cytochrome P450 2C19; read-out: AC50): 3.55 µM (inconclusive)

CC(C)Cn1c(N)c(S(=O)(=O)c2cccs2)c2nc3ccccc3nc21
AC50 [1]: > 380 µM (inactive) | EC50 (Protein RecA): 32.9 µM (inconclusive)

CCOC(=O)N1C(=O)[C@](c2ccc(Cl)cc2)(C(C)C)N1C(=O)OCC
AC50 [1]: 3.09 µM (active) | EC50 (Protein RecA): 3.34 µM (active)
